Results published in US6935334B2, “Enhancing therapeutic effectiveness of nitric oxide inhalation” (The General Hospital Corporation, priority 2000, dated 2005).

Legend:
NOS2 = assay: Pulmonary cGMP levels after endotoxin challenge; assay type: in vivo, mouse; conditions: wild-type mice 7 hours after endotoxin challenge; L-NIL 5 mg/kg intraperitoneally; data not shown
[1] = system: hypoxic pulmonary vasoconstriction (HPV) in mice; assay: Redistribution of pulmonary blood flow (QLPA/QPA) after left mainstem bronchus occlusion (LMBO), murine HPV model; assay type: in vivo, mouse
Experimental: Group 3: endotoxin-treated+L-NIL. SV129/B6F1 wild-type mice (n=5) were injected intraperitoneally with 10 mg/kg E. coli 011B4 endotoxin dissolved in 0.2 mL saline. Three hours after the endotoxin challenge, mice were treated with L-NIL 5 mg/kg intraperitoneally. Studies were performed 22 hours after the endotoxin challenge. In additional SV129/B6F1 mice with (n=5) and without (n=4) a prior challenge of endotoxin (22 hours earlier), the acute response to an intravenous bolus of 5 mg/kg L-NIL administered during LMBO, was studied.
Group 4: prolonged exposure to 4 or 40 ppm NO. Saline-treated SV129 wild-type mice (n=5) and NOS2-deficient mice (n=5) breathed 40 ppm NO in air for 22 hours and were studied 1 hour after discontinuation of NO inhalation. SV129 wild-type mice (n=5) and NOS2-deficient mice (n=5) breathed 40 ppm NO in air for 22 hours after challenge with 10 mg/kg endotoxin intraperitoneally and were studied 1 hour after discontinuation of NO inhalation. Additional NOS2-deficient mice (n=4) breathed 4 ppm of NO in air for 22 hours after challenge with 10 mg/kg endotoxin intraperitoneally and were studied 1 hour after discontinuation of NO inhalation.
Experimental preparation. Mice were anesthetized by intraperitoneal injection of ketamine (0.1 mg/g body weight [bw]). Tracheostomy and arterial catheterization were performed as described previously (Steudel et al., 1997, Circ. Res. 81:34-41). A custom-made endotracheal tube (22G Angiocath; Becton Dickinson Healthcare Systems, Sandy, Utah, USA), combined with a 2 French Fogarty arterial embolization catheter (Baxter Healthcare Corp., Irvine, Calif., USA) was inserted into the trachea, with the balloon tip of the Fogarty catheter initially remaining in the trachea. Volume-controlled ventilation was initiated at a respiratory rate of 110-120 breaths per minute, at FiO2 1.0, a peak inspiratory pressure of 13 cm H2O, and a positive end-expiratory pressure level of 2-3 cm H2O. A right parasternal thoracotomy was performed, and a small-vessel ultrasonic flow probe (1RB; Transonic Instruments, Ithaca, N.Y.) was placed around the right pulmonary artery and fixed in position using a micromanipulator (X-tra Hand; TechniTool, Plymouth, Pa.). A 4-0 silk suture was positioned around the left main pulmonary artery to allow transient vascular occlusion. A pulmonary artery catheter (PE10) was inserted into the main pulmonary artery by direct puncture. In other experiments, a lower thoracic aortic flow probe was placed as reported previously (Steudel et al., supra).
Blood flow and pressure measurements. Mean systemic arterial pressure (PSA), mean pulmonary artery pressure (PPA), and in some studies PLA, were continuously monitored using biomedical amplifiers (Hewlett Packard 8805C, Palo Alto, Calif.; Siemens Sirecust 960, Danvers, Mass.). Mean lower thoracic aortic flow (QLTAF) and right pulmonary artery flow (QRPA) were measured with small vessel flow probes connected to a flowmeter (T106; Transonic Instruments). In some experiments, left ventricular end-diastolic pressure was measured with a 1.4 Fr. Millar catheter. The catheter was advanced through the right carotid artery into the left ventricle. […] All monitoring equipment was calibrated before each experiment.
Differential measurement of left and right pulmonary artery flow. To assess the contribution of QRPA and left pulmonary artery flow (QLPA) to total pulmonary artery flow (QPA), transient occlusion (90 seconds) of the left pulmonary artery (QLPA) was performed. QRPA during acute left pulmonary artery occlusion was considered to be QPA (i.e., cardiac output) and correlated closely (r2=0.88; y=0.95x+0.38; n=9) with QLTAF. QLPA was calculated as the difference between QRPA during left pulmonary artery occlusion (QPA) and QRPA with a patent left pulmonary artery (QLPA=QPA−QRPA). Absolute values of respective flows were recorded, and the fractional distribution of flow to the right and left lungs (QRPA/QPA and QLPA/QPA) was calculated. […]

[2] = saline-treated wild-type mice, L-NIL 5 mg/kg intravenously after LMBO

CC(=N)NCCCC[C@H](N)C(=O)O [L-NIL]
increase in pulmonary cGMP levels (NOS2): sufficient to prevent the increase in pulmonary cGMP levels
reduction of QLPA/QPA after LMBO ([1]; endotoxin-challenged (10 mg/kg i.p.) wild-type mice treated with L-NIL 5 mg/kg intraperitoneally 3 hours later, studied 22 hours after endotoxin): 53±10%
all other hemodynamic parameters after L-NIL injection [1, 2]: did not change
reduction of QLPA/QPA during LMBO after acute L-NIL [1, 2]: 56±3%
reduction of QLPA/QPA during LMBO after acute L-NIL ([1]; wild-type mice treated with endotoxin 22 hours earlier, L-NIL 5 mg/kg intravenously after LMBO): 24±18%
